The values that follow come from patent US20100105628A1, “REDUCING POST-OPERATIVE ADHESION FORMATION WITH INTRAPERITONEAL GLUTAMINE” (UNIVERSITY OF SASKATCHEWAN, priority 2007, published 2010).

≈ marks a conversion by molar mass, not a printed value. Peptide text beside a SMILES is read from it.

The conditions of series [1]: cited from earlier work.
Another series has as its system male Wistar rats. The series is described as follows: modified cecal puncture with pulstring, post-operative adhesion formation (Example 1). The series is classed as in vivo, rat. The settings on record: for complications due to intraperitoneal use: 0.3-1.5 g/kg intra-peritoneally; for acute inflammatory response (macrophages and macrophage chemotactic proteins): days 3-7. The method, then:
70 plus male Wistar rats (over 350 g each) were assessed histologically on post-operative days 1, 3, 5, 7, 10, 30, and at about 6 weeks. The rats were randomly distributed based on the mode of treatment, type of sutures and presence or absence of hemorrhage during surgery. Initially, there were three surgery groups (alanyl-glutamine treatment, saline, no treatment) plus a control (no surgery). A fifth group using L-glutamine instead of alanyl-glutamine was included after preliminary results were obtained.
The rats were anaesthetized with halothane/Ketamine. Open surgery involving a midline sub-umbilical incision and a modified cecal puncture with pulstring to prevent soilage after abdominal closure was done. The procedure involved some fecal extrusion, mimicking clinical scenarios of iatrogenic/traumatic perforations of the bowel. Alanyl-glutamine [Degussa; Coubevoie, France] (0.3 g/kg-1.5 g/kg); saline (5 ml); or L-glutamine [Wiler; PCCA] (1.5 g/kg) was instilled into the peritoneal cavity from a syringe. The cecum, abdomen, and the skin were closed in layers using the same suture. Various absorbable (3/0 Vicryl™, 3/0 Monocryl™, 3/0 PDS™, 2/0 Maxon™) and non-absorbable sutures (3/0 Prolene™, 3/0 Ethibond™, 4/0 & 5/0 Surgilene™, 3/0 Novafil™) were used. The wound was infiltrated with local anesthetic. The animals were given sufficient chow to eat (20 g/day≈2 mmole/kg/day). The gastrointestinal tract and omentum were harvested from the stomach to the sigmoid colon and fixed in formaldehyde solution for evaluation.
The severity of adhesions was assessed histologically using standard Haematoxylin & Eosin and Masson trichrome stained slides. The latter helped delineate the degree of fibrosis and collagen deposition.
Semi-quantitative analysis was done by scoring the average number of milky spots per high-power-field (HPF). Quantitative statistical analysis was done using the T-test between the experimental groups. Milky spots are a marker for inflammation and adhesion formation.
We evaluated macrophage activity following the abdominal surgery using a macrophage chemotactic protein (MCP1) antibody stain. MCP1 is a marker for macrophage activity. […] The fact that MCP1 was reduced by the treatment but was not completely absent is significant since complete absence is not desirable as it is associated with peritonitis and septic complications post-laparotomy.

Another series deals with rats. The series is described as follows: cecal puncture with Marlex mesh inserted, adhesion score of Zuhlke (Example 2). In kind it is in vivo, rat. To be noted: day 90. Here is the method:
Previous studies show a high incidence of adhesion formation when surgical mesh is employed as a reinforcing material [6a, 6b]. We repeated trials as described in Example 1, inserting Marlex™ mesh during the procedure on the surgical groups.
Severity of adhesions was assessed at day 90 using the adhesion score of Zuhlke, et al.. This scoring procedure has been described in the literature for assessment of other potential treatments for adhesions. […] This differs from previous measurements of adhesions using polypropylene mesh which reported up to about 90% adhesion formation [6a].

The subject of the next series is Sprague-Dawley rats. Put plainly: secondary adhesions after adhesiolysis, mesh implanted (Example 3). The series is classed as in vivo, rat. To be noted: three weeks after adhesiolysis and alanyl-glutamine; six months after initial surgery with mesh. The method, then: Adhesions tend to recur once in place. We examined the effect of alanyl-glutamine treatment on such secondary adhesions. The modified cecal perforation with pulstring closure procedure described in Example 1 was performed on 9 Sprague-Dawley rats. These were divided into 5 groups, each group receiving a different form of mesh (INTERCEED™; PROCEED™; BARD™ composite; prolene; and a mesh which was allowed to be “infected” by repeated re-opening of the wound). The surgical procedure with mesh implacement was performed without application of a glutamine source. Six months after initial surgery, a laparotomy was performed on each rat then adhesiolysis followed by installation of alanyl-glutamine.

[2] abbreviates: versus saline and non-treatment surgical groups.

In the case of `NCC(=O)N[C@@H](CCC(N)=O)C(=O)O` [Glycyl-glutamine] (H-Gly-Gln-OH), the solubility in water in series [1] is 154 mg/mL (≈ 758 mM).

As to `NC(=O)CC[C@H](N)C(=O)O` [L-glutamine], the “complications due to intraperitoneal use” value in the series on male Wistar rats is listed as “did not observe complications”. Further, the “acute inflammatory response (macrophages and macrophage chemotactic proteins)” value in the series on male Wistar rats (setting [2]) is listed as “reduction, but to a lesser extent”. The water solubility in series [1] (at 20° C.) is 36 mg/mL (≈ 246 mM).

With `C[C@H](N)C(=O)N[C@@H](CCC(N)=O)C(=O)O` [alanyl-glutamine] (H-Ala-Gln-OH), in the series on male Wistar rats, the “complications due to intraperitoneal use” value is on record as “did not observe complications”. The effectiveness of dosage entry in the series with male Wistar rats (0.3 g/kg intraperitoneal) and with male Wistar rats (1.5 g/kg intraperitoneal) was “effective” throughout. Further, the “histological appearance of the peritoneum, adhesion” value with male Wistar rats (10th post-operative day, intraperitoneal, compared with untreated and saline treated surgical groups) is given as “very minimal adhesion”. Further, in the series with male Wistar rats (day-10 animals, versus saline and non-treatment surgical groups), the “fibrosis and collagen deposition” value is on record as “reduced”. Moreover, the “acute inflammatory response (macrophages and macrophage chemotactic proteins)” value in the series with male Wistar rats (setting [2]) is “markedly reduced”. Also, the “milky spots per 5 high power field (5HPF)” value in the series with male Wistar rats (peritoneum, controls 1 per 5HPF, untreated surgical group 6-7 per 5HPF) was “the same as the controls”. Moreover, the “adhesions in all the suture groups (braided and monofilament)” value with male Wistar rats (rat, in vivo) is “prevented adhesions”. Also, in the series on male Wistar rats (rats assessed at 6 weeks), the “adhesion, histological, later assessment” value is listed as “This result continued”. The “adhesion score of Zuhlke” value in the series with rats is 0-1. Further, in the series with Sprague-Dawley rats, the “recurrence of adhesions (secondary adhesions), scored according to Zuhlke” value is recorded as “no secondary adhesions were seen”. Further, the solubility in water in series [1] is 568 mg/mL (≈ 2610 mM).
